Experimental data taken from ChEMBL document CHEMBL4680193, “Isoindoline scaffold-based dual inhibitors of HDAC6 and HSP90 suppressing the growth of lung cancer in vitro and in vivo” (Eur J Med Chem, 2020).
Calls of active or inactive are those of the source. The calls are words filed in the database; no cut-off is given here.

Key:
[1] = molecular target: T1, Protein deacetylase HDAC6 (Homo sapiens, UniProt Q9UBN7); assay: Inhibition of recombinant human HDAC6 using RHK-K(Ac)-AMC as substrate by fluorescence based assay
T1 sequence (Q9UBN7 whole entry): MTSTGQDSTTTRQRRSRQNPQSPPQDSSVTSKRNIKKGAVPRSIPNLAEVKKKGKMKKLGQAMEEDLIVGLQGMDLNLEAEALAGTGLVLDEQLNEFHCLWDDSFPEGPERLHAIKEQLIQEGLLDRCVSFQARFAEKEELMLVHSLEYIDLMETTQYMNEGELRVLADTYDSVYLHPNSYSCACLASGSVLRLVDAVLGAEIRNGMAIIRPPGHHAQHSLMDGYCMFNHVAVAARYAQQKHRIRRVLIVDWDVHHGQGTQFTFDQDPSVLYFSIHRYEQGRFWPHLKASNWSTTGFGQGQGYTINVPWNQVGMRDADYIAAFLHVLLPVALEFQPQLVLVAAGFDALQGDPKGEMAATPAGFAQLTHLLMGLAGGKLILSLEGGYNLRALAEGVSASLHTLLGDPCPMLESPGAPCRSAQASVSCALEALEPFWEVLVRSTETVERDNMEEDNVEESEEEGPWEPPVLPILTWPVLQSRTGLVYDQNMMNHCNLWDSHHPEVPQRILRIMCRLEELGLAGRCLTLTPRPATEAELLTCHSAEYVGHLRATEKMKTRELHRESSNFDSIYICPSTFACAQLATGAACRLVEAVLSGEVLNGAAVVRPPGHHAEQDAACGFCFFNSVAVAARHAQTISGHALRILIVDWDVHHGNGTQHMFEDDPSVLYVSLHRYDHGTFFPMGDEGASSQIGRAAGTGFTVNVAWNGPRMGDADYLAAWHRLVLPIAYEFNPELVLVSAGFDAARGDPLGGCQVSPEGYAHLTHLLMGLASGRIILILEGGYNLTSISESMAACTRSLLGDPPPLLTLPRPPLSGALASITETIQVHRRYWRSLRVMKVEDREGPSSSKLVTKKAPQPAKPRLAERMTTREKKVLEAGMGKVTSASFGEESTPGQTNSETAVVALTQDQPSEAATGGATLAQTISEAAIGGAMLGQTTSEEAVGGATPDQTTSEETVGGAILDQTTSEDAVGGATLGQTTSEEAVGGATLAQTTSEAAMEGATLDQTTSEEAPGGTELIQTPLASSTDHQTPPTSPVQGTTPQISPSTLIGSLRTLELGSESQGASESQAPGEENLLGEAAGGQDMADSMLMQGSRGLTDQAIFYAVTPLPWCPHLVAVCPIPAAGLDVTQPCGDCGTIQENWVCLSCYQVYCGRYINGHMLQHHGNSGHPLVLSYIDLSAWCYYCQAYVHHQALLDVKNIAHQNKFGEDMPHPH

Homo sapiens [2] = species: Homo sapiens; assay: Selectivity index, ratio of IC50 for recombinant human C-terminal FLAG-His-tagged HDAC1 (1 to 482 residues) expressed in Sf21 cells to IC50 for recombinant human HDAC6
Homo sapiens [3] = species: Homo sapiens; assay: Selectivity index, ratio of IC50 for recombinant human HDAC3 to IC50 for recombinant human HDAC6
Homo sapiens [4] = species: Homo sapiens; assay: Selectivity index, ratio of IC50 for recombinant human HDAC8 to IC50 for recombinant human HDAC6
[5] = molecular target: Heat shock protein HSP90 (Homo sapiens) (UniProt P07900+P08238); assay: Inhibition of HSP90 in human NCI-H1975 cells assessed as decrease in STAT3 Tyr705 phosphorylation at 3 uM measured after 12 hrs by Western blot analysis; assay type: cell-based
NCI-H1975 [6] = assay: Induction of apoptosis in human NCI-H1975 cells assessed as increase in caspase 9 activation incubated for 48 hrs by PI staining based Western blot analysis; assay type: functional, cell-based; conditions: dose 0.1-3 µM
NCI-H1975 [7] = assay: Induction of apoptosis in human NCI-H1975 cells assessed as increase in gammaH2AX activation incubated for 48 hrs by PI staining based Western blot analysis; assay type: functional, cell-based; conditions: dose 0.1-3 µM
NCI-H1975 [8] = assay: Antitumor activity against human NCI-H1975 cells xenografted in BALB/c mouse assessed as reduction in tumor volume at 50 mg/kg, ip administered for 2 weeks and measured after 2 week; assay type: functional, organism-based
NCI-H1975 [9] = assay: Antitumor activity against human NCI-H1975 cells xenografted in BALB/c mouse assessed as reduction in tumor growth at 100 mg/kg, ip administered for 2 weeks and measured after 2 week relative to control; assay type: functional; conditions: 336 h, read-out: TGI
NCI-H1975 [10] = assay: Antitumor activity against human NCI-H1975 cells xenografted in BALB/c mouse assessed as reduction in tumor growth at 50 mg/kg, ip administered for 2 weeks in presence of afatinib and measured after 2 week relative to control; assay type: functional; conditions: 336 h, read-out: TGI

With CC(C)c1cc(C(=O)N2Cc3ccc(NC(=O)CCCCCCCCC(=O)NO)cc3C2)c(O)cc1O the IC50 [1] was 4.32 nM, the Ratio IC50 (Homo sapiens [2]) was 434 and the Ratio IC50 (Homo sapiens [3]) was 303. The Ratio IC50 (Homo sapiens [4]) was 861, the inhibition [5] was “Active” and the Activity (NCI-H1975 [6]) was “Dose-dependent effect”. The Activity (NCI-H1975 [7]) was “Dose-dependent effect”, the Activity (NCI-H1975 [8]) was “Active” and the inhibition in vivo at 100 mg/kg (NCI-H1975 [9]) was 69.7%. It also gave an inhibition in vivo at 50 mg/kg (NCI-H1975 [10]) of 72.3%.
